These compounds were tested on NL-RLuc virus (assay: Inhibition of HIV replication (NL-RLuc virus, luciferase readout in MT-2 cells)). Settings: Human immunodeficiency virus 1, MT2, 120 h, MT-2 cells infected with NL-RLuc virus, 5 days of incubation, 10% FBS, at least 2 experiments.
Type: cell-based
Source text: Inhibition of HIV Replication:
A recombinant NL-RLuc proviral clone was constructed in which a section of the nef gene form NL4-3 was replaced with the Renilla Luciferase gene. This virus is fully infectious and can undergo multiple cycles of replication in cell culture. In addition, the luciferous reporter provides a simple and easy method for quantitating the extent of virus growth and consequently, the antiviral activity of test compounds. The plasmid pNLRLuc contains the proviral NL-Rluc DNA cloned into pUC18 at the PvuII site. The NL-RLuc virus was prepared by transfection of 293T cells with the plasmid pNLRLuc. Transfections were performed using the LipofectAMINE PLUS kit form Invitrogen (Carlsbad, Calif.) according to the manufacturer and the virus generated was titered in MT-2 cells. For susceptibility analyses, the titrated virus was used to infect MT-2 cells in the presence of compound, and after 5 days of incubation, cells were processed and quantitated for virus growth by the amount of expressed luciferase. Assay media was RPMI 1640 supplemented with 10% heat inactivated fetal bovine serum (FBS), 100 units/ml penicillin G/100 units/ml streptomycin, 10 mM HEPES buffer pH 7.55 and 2 mM L-glutamine. The results form at least 2 experiments were used to calculate the EC50 values. Luciferase was quantitated using the Dual Luciferase kit form Promega (Madison, Wis.). Susceptibility of viruses to compounds was determined by incubation in the presence of serial dilutions of the compound. The 50% effective concentration (EC50) was calculated by using the exponential form of the median effect equation where (Fa)=1/[1+(ED50/drug conc.)^m](Johnson V A, Byington R T. Infectivity Assay. In Techniques in HIV Research. ed. Aldovini A, Walker B D. 71-76. New York: Stockton Press. 1990).
COCCNc1nc(C)c([C@H](OC(C)(C)C)C(=O)O)c(N2CCC(C)(C)CC2)c1-c1ccc(OCCc2ccc(F)cc2)cc1 [Example 27, (S)-2-(tert-Butoxy)-2-(4-(4,4-dimethylpiperidin-1-yl)-5-(4-(4-fluorophenethoxy)phenyl)-6-((2-methoxyethyl)amino)-2-methylpyridin-3-yl)acetic acid] gave an EC50 of 0.7 nM.
In the case of Cc1nc(NCCN(C)C)c(-c2ccc(OCCc3ccc(F)cc3)cc2)c(N2CCC(C)(C)CC2)c1[C@H](OC(C)(C)C)C(=O)O [Example 28, (S)-2-(tert-Butoxy)-2-(6-((2-(dimethylamino)ethyl)amino)-4-(4,4-dimethylpiperidin-1-yl)-5-(4-(4-fluorophenethoxy)phenyl)-2-methylpyridin-3-yl)acetic acid], the EC50 is reported as 0.7 nM.
Cc1nc(NCCN2CCCCC2)c(-c2ccc(OCCc3ccc(F)cc3)cc2)c(N2CCC(C)(C)CC2)c1[C@H](OC(C)(C)C)C(=O)O [Example 29, (S)-2-(tert-Butoxy)-2-(4-(4,4-dimethylpiperidin-1-yl)-5-(4-(4-fluorophenethoxy)phenyl)-2-methyl-6-((2-(piperidin-1-yl)ethyl)amino)pyridin-3-yl)acetic acid] gave an EC50 of 0.2 nM.
Cc1nc(NCc2ccn[nH]2)c(-c2ccc(OCCc3ccc(F)cc3)cc2)c(N2CCC(C)(C)CC2)c1[C@H](OC(C)(C)C)C(=O)O [Example 30, (S)-2-(6-(((1H-Pyrazol-5-yl)methyl)amino)-4-(4,4-dimethylpiperidin-1-yl)-5-(4-(4-fluorophenethoxy)phenyl)-2-methylpyridin-3-yl)-2-(tert-butoxy)acetic acid] gave an EC50 of 2 nM.
With Cc1nc(NCCC2CCN(C)CC2)c(-c2ccc(OCCc3ccc(F)cc3)cc2)c(N2CCC(C)(C)CC2)c1[C@H](OC(C)(C)C)C(=O)O [Example 31, (S)-2-(tert-Butoxy)-2-(4-(4,4-dimethylpiperidin-1-yl)-5-(4-(4-fluorophenethoxy)phenyl)-2-methyl-6-((2-(1-methylpiperidin-4-yl)ethyl)amino)pyridin-3-yl)acetic acid] the EC50 was 0.8 nM.
Work on Cc1nc(NCCc2c[nH]cn2)c(-c2ccc(OCCc3ccc(F)cc3)cc2)c(N2CCC(C)(C)CC2)c1[C@H](OC(C)(C)C)C(=O)O [Example 32, (S)-2-(6-((2-(H-Imidazol-4-yl)ethyl)amino)-4-(4,4-dimethylpiperidin-1-yl)-5-(4-(4-fluorophenethoxy)phenyl)-2-methylpyridin-3-yl)-2-(tert-butoxy)acetic acid] yielded an EC50 of 5 nM.
With Cc1nc(NCCn2cccn2)c(-c2ccc(OCCc3ccc(F)cc3)cc2)c(N2CCC(C)(C)CC2)c1[C@H](OC(C)(C)C)C(=O)O [Example 33, (S)-2-(6-((2-(1H-Pyrazol-1-yl)ethyl)amino)-4-(4,4-dimethylpiperidin-1-yl)-5-(4-(4-fluorophenethoxy)phenyl)-2-methylpyridin-3-yl)-2-(tert-butoxy)acetic acid] the EC50 was 2 nM.
Compound Cc1nc(NCCCN2CCOCC2)c(-c2ccc(OCCc3ccc(F)cc3)cc2)c(N2CCC(C)(C)CC2)c1[C@H](OC(C)(C)C)C(=O)O [Example 34, (S)-2-(tert-Butoxy)-2-(4-(4,4-dimethylpiperidin-1-yl)-5-(4-(4-fluorophenethoxy)phenyl)-2-methyl-6-((3-morpholinopropyl)amino)pyridin-3-yl)acetic acid] has an EC50 of 0.7 nM.
Compound Cc1nc(NCCCN2CCCCC2)c(-c2ccc(OCCc3ccc(F)cc3)cc2)c(N2CCC(C)(C)CC2)c1[C@H](OC(C)(C)C)C(=O)O [Example 35, (S)-2-(tert-Butoxy)-2-(4-(4,4-dimethylpiperidin-1-yl)-5-(4-(4-fluorophenethoxy)phenyl)-2-methyl-6-((3-(piperidin-1-yl)propyl)amino)pyridin-3-yl)acetic acid] has an EC50 of 1 nM.
Compound Cc1nc(-c2cnn(C)c2)c(-c2ccc(OCCc3ccc(F)cc3)cc2)c(N2CCC(C)(C)CC2)c1[C@H](OC(C)(C)C)C(=O)O [Example 36, (S)-2-(tert-Butoxy)-2-(4-(4,4-dimethylpiperidin-1-yl)-5-(4-(4-fluorophenethoxy)phenyl)-2-methyl-6-(1-methyl-H-pyrazol-4-yl)pyridin-3-yl)acetic acid] has an EC50 of 4 nM.
Cc1nn(C)cc1-c1nc(C)c([C@H](OC(C)(C)C)C(=O)O)c(N2CCC(C)(C)CC2)c1-c1ccc(OCCc2ccc(F)cc2)cc1 [Example 37, (S)-2-(tert-Butoxy)-2-(6-(1,3-dimethyl-1H-pyrazol-4-yl)-4-(4,4-dimethylpiperidin-1-yl)-5-(4-(4-fluorophenethoxy)phenyl)-2-methylpyridin-3-yl)acetic acid] was tested, and the EC50 was 2 nM.
Cc1n[nH]cc1-c1nc(C)c([C@H](OC(C)(C)C)C(=O)O)c(N2CCC(C)(C)CC2)c1-c1ccc(OCCc2ccc(F)cc2)cc1 [Example 38, (S)-2-(tert-Butoxy)-2-(4-(4,4-dimethylpiperidin-1-yl)-5-(4-(4-fluorophenethoxy)phenyl)-2-methyl-6-(3-methyl-1H-pyrazol-4-yl)pyridin-3-yl)acetic acid] gave an EC50 of 8 nM.
With Cc1nc(-c2cncnc2)c(-c2ccc(OCCc3ccc(F)cc3)cc2)c(N2CCC(C)(C)CC2)c1[C@H](OC(C)(C)C)C(=O)O [Example 39, (S)-2-(tert-Butoxy)-2-(4-(4,4-dimethylpiperidin-1-yl)-5-(4-(4-fluorophenethoxy)phenyl)-2-methyl-6-(pyrimidin-5-yl)pyridin-3-yl)acetic acid] the EC50 was 3 nM.
With Cc1nc(NCCCN(C)C)c(-c2ccc(OCCc3ccc(F)cc3)cc2)c(N2CCC(C)(C)CC2)c1[C@H](OC(C)(C)C)C(=O)O [Example 40, (S)-2-(tert-Butoxy)-2-(6-((3-(dimethylamino)propyl)amino)-4-(4,4-dimethylpiperidin-1-yl)-5-(4-(4-fluorophenethoxy)phenyl)-2-methylpyridin-3-yl)acetic acid] the EC50 was 2 nM.
Cc1nc(-c2cccnc2)c(-c2ccc(OCCc3ccc(F)cc3)cc2)c(N2CCC(C)(C)CC2)c1[C@H](OC(C)(C)C)C(=O)O [Example 41, (S)-2-(tert-Butoxy)-2-(4-(4,4-dimethylpiperidin-1-yl)-3-(4-(4-fluorophenethoxy)phenyl)-6-methyl-[2, 3′-bipyridin]-5-yl)acetic acid] showed an EC50 of 4 nM.
Work on Cc1nc(NCC2CCN(C)CC2)c(-c2ccc(OCCc3ccc(F)cc3)cc2)c(N2CCC(C)(C)CC2)c1[C@H](OC(C)(C)C)C(=O)O [Example 42, (S)-2-(tert-Butoxy)-2-(4-(4,4-dimethylpiperidin-1-yl)-5-(4-(4-fluorophenethoxy)phenyl)-2-methyl-6-(((1-methylpiperidin-4-yl)methyl)amino)pyridin-3-yl)acetic acid] yielded an EC50 of 3 nM.
Cc1nc(NCCN2CCN(C)CC2)c(-c2ccc(OCCc3ccc(F)cc3)cc2)c(N2CCC(C)(C)CC2)c1[C@H](OC(C)(C)C)C(=O)O [Example 43, (S)-2-(tert-Butoxy)-2-(4-(4,4-dimethylpiperidin-1-yl)-5-(4-(4-fluorophenethoxy)phenyl)-2-methyl-6-((2-(4-methylpiperazin-1-yl)ethyl)amino)pyridin-3-yl)acetic acid] gave an EC50 of 0.6 nM.
Compound Cc1nc(NCC2CCOCC2)c(-c2ccc(OCCc3ccc(F)cc3)cc2)c(N2CCC(C)(C)CC2)c1[C@H](OC(C)(C)C)C(=O)O [Example 44, (S)-2-(tert-Butoxy)-2-(4-(4,4-dimethylpiperidin-1-yl)-5-(4-(4-fluorophenethoxy)phenyl)-2-methyl-6-(((tetrahydro-2H-pyran-4-yl)methyl)amino)pyridin-3-yl)acetic acid] has an EC50 of 3 nM.
